# From patent US9376470B2, “Polypeptide having angiogenesis-inducing activity and antibacterial activity, and use thereof for medical purposes” (FunPep Inc., priority 2008, dated 2016)
# Experiments:
# Format in all cases: cell-based
# [1] = test system: Staphylococcus aureus ATCC29213; test: Antibacterial activity, ATP assay (BacTiter-Glo)
# Procedure: (§1) The antibacterial activity of the polypeptides was measured using an ATP assay method. That is, using BacTiter-Glo Microbial Cell Viability Assay kit available from PROMEGA, the antibacterial activity of the peptides was evaluated from the viability of bacteria. […] With respect to the strains, Staphylococcus aureus ATCC29213 (S. aureus ATCC29213) as Gram-positive bacteria, or, alternatively, Pseudomonas aeruginosa (P. aeruginosa ATCC27853) as Gram-negative bacteria, was used. The bacteria were cultured in media for 3 to 4 hours, and thereafter absorbances at A600 were measured. Bacterial suspensions were diluted with Mueller-Hinton broth (MHB) according to McFarland #0.5. Each strain was added so as to attain about 0.5−1×10^5 CFU/mL (final concentration) in terms of Escherichia coli. […] A solution to which the peptides were not added was considered as a negative control, and a solution to which tobramycin (TOB) was added was considered as a positive control. […] Relative values were calculated by comparison with the negative control, and these values were regarded as the viability. ATP (%) of the antibacterial activity was measured in the same manner as mentioned above, and the “minimum inhibitory concentration (MIC)” was measured as follows. MIC is the lowest concentration of an agent that may inhibit the growth of a bacterium. MIC is used as a parameter for the efficacy of an antibacterial agent, for the strength of bacterial sensitivity, or the like. The bacteria can grow (proliferate) when the concentration is not higher than MIC, and cannot grow when the concentration is higher than MIC. Its measurement is carried out according to a method defined as a standard method by Japanese Society of Chemotherapy or CLINICAL AND LABORATORY […] (CLSI), but, in this Example, its measurement was carried out by a broth microdilution method in accordance with “M100-S17/M7-A7” (Performance Standards for Antimicrobial Susceptibility Testing; Seventeenth Informational Supplement, Vol. 27 No. 1) published by CLSI on January, 2007. That is, sensitivity test of agents was carried out using a microtiter plate or test tubes. With respect to each strain, Escherichia coli: ATCC 25922 (Escherichia coli ATCC 25922), Pseudomonas aeruginosa: ATCC 27853 (Pseudomonas aeruginosa ATCC 27853), Staphylococcus aureus: ATCC29213 (Staphylococcus aureus ATCC29213), Klebsiella pneumoniae: JCM 1662 (Klebsiella pneumoniae JCM 1662), enterobacteria (1): JCM 1232 (Enterobacter cloacae JCM 1232), enterobacteria (2): JCM 1235 (Enterobacter aerogenes JCM 1235), and Staphylococcus epidermidis: JCM 2414 (Staphylococcus epidermidis JCM 2414), were used. […] As the concentrations of the agents in ATP assay, the concentrations as described in the Tables were used.
# [2] = test system: Pseudomonas aeruginosa ATCC27853; test: Antibacterial activity, ATP assay (BacTiter-Glo); conditions: for ATP (%) mean, Pseudomonas aeruginosa: Table 4-1, ATP assay concentration: peptides 10, TOB 1.0, CPFX 1.0, OX 0.5, MEPM 1.0 μg/ml
# Procedure: as §1
# [3] = test system: Staphylococcus aureus ATCC29213; test: microbe, parasite or virus in culture; conditions: 37° C., 20 hours
# Procedure: (§2) ATP (%) of the antibacterial activity was measured in the same manner as mentioned above, and the “minimum inhibitory concentration (MIC)” was measured as follows. MIC is the lowest concentration of an agent that may inhibit the growth of a bacterium. MIC is used as a parameter for the efficacy of an antibacterial agent, for the strength of bacterial sensitivity, or the like. The bacteria can grow (proliferate) when the concentration is not higher than MIC, and cannot grow when the concentration is higher than MIC. […] (CLSI), but, in this Example, its measurement was carried out by a broth microdilution method in accordance with “M100-S17/M7-A7” (Performance Standards for Antimicrobial Susceptibility Testing; Seventeenth Informational Supplement, Vol. 27 No. 1) published by CLSI on January, 2007. That is, sensitivity test of agents was carried out using a microtiter plate or test tubes. The bacteria were cultured in the liquid media for 4 to 6 hours, and thereafter absorbances at A600 were measured. Bacterial suspensions were diluted with Mueller-Hinton broth (MHB) according to McFarland #0.5. Each strain was added so as to attain about 10^5 CFU/ml (final concentration). Each peptide was prepared to an optional concentration, and the solutions were serially diluted from the concentration. The polypeptide at each concentration stage was added to a microplate or test tubes, and the bacterial suspension was added thereto. […] The plate was incubated at 37° C. for 20 hours, the lowest concentration where bacterial growth was inhibited was regarded as the minimum inhibitory concentration. With respect to each strain, Escherichia coli: ATCC 25922 (Escherichia coli ATCC 25922), Pseudomonas aeruginosa: ATCC 27853 (Pseudomonas aeruginosa ATCC 27853), Staphylococcus aureus: ATCC29213 (Staphylococcus aureus ATCC29213), Klebsiella pneumoniae: JCM 1662 (Klebsiella pneumoniae JCM 1662), enterobacteria (1): JCM 1232 (Enterobacter cloacae JCM 1232), enterobacteria (2): JCM 1235 (Enterobacter aerogenes JCM 1235), and Staphylococcus epidermidis: JCM 2414 (Staphylococcus epidermidis JCM 2414), were used. […] As the concentrations of the agents in ATP assay, the concentrations as described in the Tables were used.
# [4] = test system: Pseudomonas aeruginosa ATCC 27853; test: microbe, parasite or virus in culture; conditions: Pseudomonas aeruginosa, ATCC27853; 37° C., 20 hours
# Procedure: as §2
# [5] = test system: Staphylococcus epidermidis JCM 2414; test: microbe, parasite or virus in culture; conditions: Staphylococcus epidermidis, JCM2414; 37° C., 20 hours
# Procedure: as §2
# [6] = Table 3, peptides 10 μg/mL, 3 hours, ATP relative to negative control
Compound,"Viability (%) Staphylococcus aureus [1, 6] [%]","ATP (%) mean, Staphylococcus aureus ([1]; Table 4-1, ATP assay concentration: peptides 10, TOB 1.0, OX 0.5 μg/ml) [%]","Viability (%) Pseudomonas aeruginosa [2, 6] [%]","ATP (%) mean, Pseudomonas aeruginosa [2] [%]",MIC [3] [µg/mL],MIC [4] [µg/mL],MIC [5] [µg/mL]
"NC[C@H]1O[C@H](O[C@H]2[C@H](O)[C@@H](O[C@H]3O[C@H](CO)[C@@H](O)[C@H](N)[C@H]3O)[C@H](N)C[C@@H]2N)[C@H](N)C[C@@H]1O [TOB, tobramycin, reference compound]",3.5,3.1,1.8,1.7,0.12 to 1,0.25 to 1,1
"C[C@@H](O)[C@H]1C(=O)N2C(C(=O)O)=C(S[C@@H]3CN[C@H](C(=O)N(C)C)C3)[C@H](C)[C@H]12 [MEPM, meropenem, reference compound]",–,–,–,20.2,0.03 to 0.12,0.25 to 1,0.125
